In one assay the test system is SW620 (KRAS G12V). In words: Cell Proliferation Assay (CellTiter-Glo 2.0), SW620. The class given is cell-based. Conditions: Homo sapiens, SW-620; SW620 (KRAS G12V) cells; 72 hours at 37° C., 5% CO2; read-out: Anti-proliferation IC50, SW620 (KRAS G12V). The procedure:
(§1) Two thousand KRAS mutant cells per well are seeded in 384-well white plate and then treated with indicated compounds for 72 hours at 37° C. and 5% CO2. Cell proliferation is measured using CellTiter-Glo 2.0 luciferase-based ATP detection assay (Promega, Madison, WI) following the manufacturer's protocol. IC50 values are determined using Prism software (GraphPad Software, San Diego, CA).
Background: ATP-based viability assays read luminescence as a measure of living cells.

A further assay concerns GP2D (KRAS G12D). Briefly: Cell Proliferation Assay (CellTiter-Glo 2.0), GP2D. The note with it: GP2D (KRAS G12D) cells; 72 hours at 37° C., 5% CO2; read-out: Anti-proliferation IC50, GP2D (KRAS G12D). Format: cell-based. The procedure: as §1

pIC50: −log10 of the molar value.

`C#Cc1c(F)ccc2cc(O)cc(-c3nc4c5c(nc(OC[C@@]67CCCN6C[C@H](F)C7)nc5c3F)N3CCCCC3C(C#N)C4)c12` (stereo partly drawn) [compound 28, 5-(8-ethynyl-7-fluoro-3-hydroxynaphthalen-1-yl)-4-fluoro-2-{[(2R,7aS)-2-fluorotetrahydro-1H-pyrrolizin-7a(5H)-yl]methoxy}-8,8a,9,10,11,12-hexahydro-7H-1,3,6,12a-tetraazabenzo[4,5]cyclohepta[1,2,3-de]naphthalene-8-carbonitrile]: the pIC50 in the assay on SW620 (KRAS G12V) is 6.10; with GP2D (KRAS G12D), 7.21.

Turning to `C#Cc1c(F)ccc2cc(O)cc(-c3nc4c5c(nc(OC[C@@]67CCCN6C[C@H](F)C7)nc5c3F)N3CCCCC3C(O)C4)c12` (stereo partly drawn) [compound 29, 5-(8-ethynyl-7-fluoro-3-hydroxynaphthalen-1-yl)-4-fluoro-2-{[(2R,7aS)-2-fluorotetrahydro-1H-pyrrolizin-7a(5H)-yl]methoxy}-8,8a,9,10,11,12-hexahydro-7H-1,3,6,12a-tetraazabenzo[4,5]cyclohepta[1,2,3-de]naphthalen-8-ol], the pIC50 in the assay on SW620 (KRAS G12V) was 6.85; in the assay with GP2D (KRAS G12D), 7.85.

For `C#Cc1c(F)ccc2cc(O)cc(-c3nc4c5c(nc(OC[C@@]67CCCN6C[C@H](F)C7)nc5c3F)N3CCCCC3=C4C)c12` [compound 30, 5-ethynyl-6-fluoro-4-(4-fluoro-2-{[(2R,7aS)-2-fluorotetrahydro-1H-pyrrolizin-7a(5H)-yl]methoxy}-7-methyl-8,9,10,11-tetrahydropyrido[1,2-g]pyrimido[4,5,6-de][1,6]naphthyridin-5-yl)naphthalen-2-ol], the pIC50 in the assay with SW620 (KRAS G12V) was 5.76; in the assay with GP2D (KRAS G12D), 6.09.

On to `CCc1c(F)ccc2cc(O)cc(-c3nc4c5c(nc(OC[C@@]67CCCN6C[C@H](F)C7)nc5c3F)N3CCCCC3C=C4)c12` (stereo partly drawn) [compound 31, 5-ethyl-6-fluoro-4-(4-fluoro-2-{[(2R,7aS)-2-fluorotetrahydro-1H-pyrrolizin-7a(5H)-yl]methoxy}-9,10,11,12-tetrahydro-8aH-1,3,6,12a-tetraazabenzo[4,5]cyclohepta[1,2,3-de]naphthalen-5-yl)naphthalen-2-ol], for which the pIC50 in the assay on SW620 (KRAS G12V) is 6.23; with GP2D (KRAS G12D) it was 6.87.

Regarding `C=Cc1c(F)ccc2cc(O)cc(-c3nc4c5c(nc(OC[C@@]67CCCN6C[C@H](F)C7)nc5c3F)N3CCCCC3C(C#N)C4)c12` (stereo partly drawn) [compound 32, 5-(8-ethenyl-7-fluoro-3-hydroxynaphthalen-1-yl)-4-fluoro-2-{[(2R,7aS)-2-fluorotetrahydro-1H-pyrrolizin-7a(5H)-yl]methoxy}-8,8a,9,10,11,12-hexahydro-7H-1,3,6,12a-tetraazabenzo[4,5]cyclohepta[1,2,3-de]naphthalene-8-carbonitrile], the pIC50 was 5.69 in the assay on SW620 (KRAS G12V) and 6.34 in the assay with GP2D (KRAS G12D).

The values are drawn from patent US20260327246A1, “FUSED RING KRAS INHIBITORS FOR TREATING DISEASE” (BLOSSOMHILL THERAPEUTICS, INC., priority 2023, published 2026).
